Reference: PubChem BioAssay (NCI)
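GI50: concentration for 50% inhibition of growth. The concentration for full growth arrest is given as TGI.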

Tests used:
Assay in all cases: NCI tumour cell line growth inhibition, 384-well format
A549 NSCLC = test system: A549 NSCLC
SN12C renal = test system: SN12C renal
LOX IMVI melanoma = test system: LOX IMVI melanoma
SNB-75 CNS = test system: SNB-75 CNS
BT-549 breast = test system: BT-549 breast
UO-31 renal = test system: UO-31 renal
RPMI-8226 leukemia = test system: RPMI-8226 leukemia
U251 glioblastoma = test system: U251 glioblastoma
IGROV1 ovarian = test system: IGROV1 ovarian
SK-MEL-28 melanoma = test system: SK-MEL-28 melanoma
NCI-H23 lung = test system: NCI-H23 lung
SF-295 CNS = test system: SF-295 CNS
UACC-257 melanoma = test system: UACC-257 melanoma
NCI-H322M lung = test system: NCI-H322M lung
CCRF-CEM leukemia = test system: CCRF-CEM leukemia
NCI-H226 lung = test system: NCI-H226 lung
TK-10 renal = test system: TK-10 renal
MDA-MB-468 breast = test system: MDA-MB-468 breast
HOP-62 NSCLC = test system: HOP-62 NSCLC
KM12 colon = test system: KM12 colon
EKVX NSCLC = test system: EKVX NSCLC
HT29 colon = test system: HT29 colon
SF-539 CNS = test system: SF-539 CNS
MDA-MB-231 breast = test system: MDA-MB-231 breast
DU-145 prostate = test system: DU-145 prostate
PC-3 prostate = test system: PC-3 prostate
NCI/ADR-RES ovarian = test system: NCI/ADR-RES ovarian
HL-60(TB) leukemia = test system: HL-60(TB) leukemia
UACC-62 melanoma = test system: UACC-62 melanoma
786-0 renal = test system: 786-0 renal
SF-268 CNS = test system: SF-268 CNS
HS 578T breast = test system: HS 578T breast
OVCAR-8 ovarian = test system: OVCAR-8 ovarian
HOP-92 NSCLC = test system: HOP-92 NSCLC
SK-OV-3 ovarian = test system: SK-OV-3 ovarian
SW-620 colon = test system: SW-620 colon
MALME-3M melanoma = test system: MALME-3M melanoma
MOLT-4 leukemia = test system: MOLT-4 leukemia
HCT-116 colon = test system: HCT-116 colon
OVCAR-4 ovarian = test system: OVCAR-4 ovarian
RXF 393 renal = test system: RXF 393 renal
MDA-MB-435 melanoma = test system: MDA-MB-435 melanoma
A498 renal = test system: A498 renal
ACHN renal = test system: ACHN renal
T-47D breast = test system: T-47D breast
SNB-19 CNS = test system: SNB-19 CNS
MCF7 breast = test system: MCF7 breast
K-562 leukemia = test system: K-562 leukemia
CAKI-1 renal = test system: CAKI-1 renal
OVCAR-5 ovarian = test system: OVCAR-5 ovarian
NCI-H522 lung = test system: NCI-H522 lung
M14 melanoma = test system: M14 melanoma
HCT-15 colon = test system: HCT-15 colon
OVCAR-3 ovarian = test system: OVCAR-3 ovarian

## Nc1nc(Cl)nc2c1ncn2C1CC(O)C(CO)O1 (stereo not drawn)
A549 NSCLC
  GI50: 0.434 µM
  TGI: > 100 µM
SN12C renal
  GI50: 0.122 µM
  TGI: 0.926 µM
LOX IMVI melanoma
  GI50: 1.11 µM
  TGI: 3.8 µM
SNB-75 CNS
  GI50: 19.9 µM
  TGI: 87.8 µM
BT-549 breast
  GI50: 0.184 µM
  TGI: 0.977 µM
UO-31 renal
  GI50: 0.372 µM
  TGI: 3.85 µM
RPMI-8226 leukemia
  GI50: 0.372 µM
  TGI: 1.61 µM
U251 glioblastoma
  GI50: 0.825 µM
  TGI: 15.8 µM
IGROV1 ovarian
  GI50: 14.7 µM
  TGI: > 100 µM
SK-MEL-28 melanoma
  GI50: 0.552 µM
  TGI: > 100 µM
NCI-H23 lung
  GI50: 0.212 µM
  TGI: 0.481 µM
SF-295 CNS
  GI50: 11.2 µM
  TGI: 34.1 µM
UACC-257 melanoma
  GI50: 1.39 µM
  TGI: > 100 µM
NCI-H322M lung
  GI50: 37.5 µM
  TGI: > 100 µM
CCRF-CEM leukemia
  GI50: 0.0812 µM
  TGI: 0.206 µM
NCI-H226 lung
  GI50: 3.58 µM
  TGI: 18.2 µM
TK-10 renal
  GI50: > 100 µM
  TGI: > 100 µM
MDA-MB-468 breast
  GI50: 3.03 µM
  TGI: 16.2 µM
HOP-62 NSCLC
  GI50: 0.236 µM
  TGI: 0.969 µM
KM12 colon
  GI50: 0.994 µM
  TGI: > 100 µM
EKVX NSCLC
  GI50: > 100 µM
  TGI: > 100 µM
HT29 colon
  GI50: 1.37 µM
  TGI: > 100 µM
SF-539 CNS
  GI50: 2.63 µM
  TGI: 12.2 µM
MDA-MB-231 breast
  GI50: 0.481 µM
  TGI: > 100 µM
DU-145 prostate
  GI50: 0.808 µM
  TGI: > 100 µM
PC-3 prostate
  GI50: > 100 µM
  TGI: > 100 µM
NCI/ADR-RES ovarian
  GI50: 0.135 µM
  TGI: > 100 µM
HL-60(TB) leukemia
  GI50: 0.0353 µM
  TGI: 0.108 µM
UACC-62 melanoma
  GI50: 0.177 µM
  TGI: 0.501 µM
786-0 renal
  GI50: 1.28 µM
  TGI: > 100 µM
SF-268 CNS
  GI50: 2.89 µM
  TGI: 19.8 µM
HS 578T breast
  GI50: 70.7 µM
  TGI: > 100 µM
OVCAR-8 ovarian
  GI50: 0.0356 µM
  TGI: > 100 µM
HOP-92 NSCLC
  GI50: 9.31 µM
  TGI: > 100 µM
SK-OV-3 ovarian
  GI50: 3.01 µM
  TGI: > 100 µM
SW-620 colon
  GI50: 0.712 µM
  TGI: > 100 µM
MALME-3M melanoma
  GI50: 0.308 µM
  TGI: > 100 µM
MOLT-4 leukemia
  GI50: 0.0229 µM
  TGI: 0.0596 µM
HCT-116 colon
  GI50: 0.27 µM
  TGI: > 100 µM
OVCAR-4 ovarian
  GI50: > 100 µM
  TGI: > 100 µM
RXF 393 renal
  GI50: 47.8 µM
  TGI: > 100 µM
MDA-MB-435 melanoma
  GI50: 0.743 µM
  TGI: > 100 µM
A498 renal
  GI50: 0.701 µM
  TGI: > 100 µM
ACHN renal
  GI50: 0.923 µM
  TGI: 5.14 µM
T-47D breast
  GI50: 6.73 µM
  TGI: > 100 µM
SNB-19 CNS
  GI50: 0.738 µM
  TGI: > 100 µM
MCF7 breast
  GI50: 0.65 µM
  TGI: > 100 µM
K-562 leukemia
  GI50: 0.428 µM
  TGI: > 100 µM
CAKI-1 renal
  GI50: 0.353 µM
  TGI: > 100 µM
OVCAR-5 ovarian
  GI50: 0.764 µM
  TGI: > 100 µM
NCI-H522 lung
  GI50: 0.83 µM
  TGI: > 100 µM
M14 melanoma
  GI50: 0.108 µM
  TGI: 0.448 µM
HCT-15 colon
  GI50: 0.395 µM
  TGI: > 100 µM
OVCAR-3 ovarian
  GI50: 2.09 µM
  TGI: > 100 µM
